Data on 24 molecules can be found in patent US20230146675A1, “PYRIMIDO[5,4-d]PYRIMIDINE DERIVATIVES AS ENT INHIBITORS FOR THE TREATMENT OF CANCERS, AND COMBINATION THEREOF WITH ADENOSINE RECEPTOR ANTAGONISTS” (ITEOS BELGIUM SA, priority 2020, published 2023).

This experiment concerns the target T1, human ENT1 (Homo sapiens, UniProt Q99808).
T1 sequence (Q99808 1-456): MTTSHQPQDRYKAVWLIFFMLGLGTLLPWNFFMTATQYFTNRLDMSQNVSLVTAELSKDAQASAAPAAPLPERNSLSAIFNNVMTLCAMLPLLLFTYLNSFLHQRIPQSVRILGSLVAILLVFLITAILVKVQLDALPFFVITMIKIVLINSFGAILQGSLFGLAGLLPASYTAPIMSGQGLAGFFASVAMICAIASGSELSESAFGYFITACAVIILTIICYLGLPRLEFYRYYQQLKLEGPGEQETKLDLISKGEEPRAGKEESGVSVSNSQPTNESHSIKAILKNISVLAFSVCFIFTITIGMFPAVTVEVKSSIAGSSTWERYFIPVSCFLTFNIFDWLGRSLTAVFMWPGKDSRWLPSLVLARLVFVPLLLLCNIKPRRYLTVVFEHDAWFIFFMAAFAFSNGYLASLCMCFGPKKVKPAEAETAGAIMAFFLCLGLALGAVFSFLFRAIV
Kind of experiment: ENT1 binding assay (competition with Sahenta-DY647 on JAR cells). Further details: JAR cells expressing ENT1 were bought from ATCC; host or cells: JAR cells. Particulars: binned IC50. How it is done:
Purpose. […] By measuring the fluorescence at the end of the assay we could assess the binding potency of the compounds of the present invention.
JAR cells were resuspended in the described buffer. Compounds of the present invention and Sahenta-DY647 were diluted 200× in the described buffer.
The total volume of the reaction was 100 μL (50 μL of cells, 25 μL of the compounds of the present invention and 25 μL of Sahenta-DY647) in a 96 well plate, U-bottom (Greiner®, #650-180). The plates were washed 2× by centrifugation (4 min, 400 rcf at 4° C.) in the same buffer.
In the case of `COCCN(Cc1ccc(OC)c(OC)c1OC)c1nc(N2CCN(C)C(=O)C2)c2nc(N(CCOC)CCOC)nc(N3CCC(OC)CC3)c2n1` [Compound 302, 4-(6-(bis(2-methoxyethyl)amino)-2-((2-methoxyethyl)(2,3,4-trimethoxybenzyl)amino)-8-(4-methoxypiperidin-1-yl)pyrimido[5,4-d]pyrimidin-4-yl)-1-methylpiperazin-2-one], the half-inhibitory concentration (IC50) is less than 100 nM.
With `COCCN(CCOC)c1nc(N2CCC(OC)CC2)c2nc(N(CCOC)CCOC)nc(NCCCNS(C)(=O)=O)c2n1` [Compound 180, N-(3-((2,6-bis(bis(2-methoxyethyl)amino)-8-(4-methoxypiperidin-1-yl)pyrimido[5,4-d]pyrimidin-4-yl)amino)propyl)methanesulfonamide], the IC50 was in the range of 500 to 1000 nM.
For `COCCN(CCOC)c1nc(N2CCCCC2)c2nc(N(CCO)CCO)nc(N3CCN(c4nccs4)CC3)c2n1` [Compound 39, 2,2′-((6-(bis(2-methoxyethyl)amino)-8-(piperidin-1-yl)-4-(4-(thiazol-2-yl)piperazin-1-yl)pyrimido[5,4-d]pyrimidin-2-yl)azanediyl)diethanol] the value was less than 100 nM; for `COCCN(CCOC)c1nc(N2CCN(C)C(=O)C2)c2nc(N(CCOC)CCOC)nc(N3CCN(c4ncn(C)n4)CC3)c2n1` [Compound 216, 4-(2,6-bis(bis(2-methoxyethyl)amino)-8-(4-(1-methyl-1H-1,2,4-triazol-3-yl)piperazin-1-yl)pyrimido[5,4-d]pyrimidin-4-yl)-1-methylpiperazin-2-one], 100 to 500 nM.
`COCCN(CCOC)c1nc(N2CCN(c3ncn(C)n3)CC2)c2nc(N(CCOC)CCOC)nc(N(C)Cc3ccc(F)c(F)c3)c2n1` [Compound 247, N4-(3,4-difluorobenzyl)-N2,N2,N6,N6-tetrakis(2-methoxyethyl)-N4-methyl-8-(4-(1-methyl-1H-1,2,4-triazol-3-yl)piperazin-1-yl)pyrimido[5,4-d]pyrimidine-2,4,6-triamine] came in with an IC50 of 100 to 500 nM.
For `COCCN(CCOC)c1nc(N2CCC(OC)CC2)c2nc(N(CCOC)CCOCCN3CCOCC3)nc(N3CCC(OC)CC3)c2n1` [Compound 45, N2,N2,N6-tris(2-methoxyethyl)-4,8-bis(4-methoxypiperidin-1-yl)-N6-(2-(2-morpholinoethoxy)ethyl)pyrimido[5,4-d]pyrimidine-2,6-diamine], the half-maximal inhibitory concentration (IC50) was 100 to 500 nM.
In turn, `COCCN(CCOC)c1nc(N2CCc3c(cnn3C)C2)c2nc(N(CCOC)CCOC)nc(N3CCN(C)C(=O)C3)c2n1` [Compound 255, 4-(2,6-bis(bis(2-methoxyethyl)amino)-8-(1-methyl-1,4,6,7-tetrahydro-5H-pyrazolo[4,3-c]pyridin-5-yl)pyrimido[5,4-d]pyrimidin-4-yl)-1-methylpiperazin-2-one] registered a half-maximal inhibitory concentration (IC50) of less than 100 nM.
For the molecule `COCCN(CCOC)c1nc(N2CCN(c3ncn(C)n3)CC2)c2nc(N(CCOC)CCOC)nc(N3CCC(OC)CC3)c2n1` [Compound 196, N2,N2,N6,N6-tetrakis(2-methoxyethyl)-4-(4-methoxypiperidin-1-yl)-8-(4-(1-methyl-1H-1,2,4-triazol-3-yl)piperazin-1-yl)pyrimido[5,4-d]pyrimidine-2,6-diamine], the IC50 lay within 100 to 500 nM.
Regarding `COCCN(CCOC)c1nc(N2CCC(OC)CC2)c2nc(N(CCO)CCN(C)C(C)=O)nc(N3CCN(C)C(=O)C3)c2n1` [Compound 277, N-(2-((6-(bis(2-methoxyethyl)amino)-8-(4-methoxypiperidin-1-yl)-4-(4-methyl-3-oxopiperazin-1-yl)pyrimido[5,4-d]pyrimidin-2-yl)(2-hydroxyethyl)amino)ethyl)-N-methylacetamide], the IC50 lay within 100 to 500 nM.
`COCCN(CCOC)c1nc(N2CCC(OC)CC2)c2nc(N(CCOC)CCOC)nc(N(C)C)c2n1` [Compound 67, N2,N2,N6,N6-tetrakis(2-methoxyethyl)-8-(4-methoxypiperidin-1-yl)-N4,N4-dimethylpyrimido[5,4-d]pyrimidine-2,4,6-triamine] yielded a half-inhibitory concentration (IC50) of 500 to 1000 nM.
`COCCN(CCOC)c1nc(N2CCC(OC)CC2)c2nc(N(CCOC)CCOC)nc(OCc3cccc(OC)c3)c2n1` [Compound 153, 4-((3-methoxybenzyl)oxy)-N2,N2,N6,N6-tetrakis(2-methoxyethyl)-8-(4-methoxypiperidin-1-yl)pyrimido[5,4-d]pyrimidine-2,6-diamine] came in with an IC50 of less than 100 nM.
For the molecule `COCCN(CCOC)c1nc(N2CCC(OC)CC2)c2nc(N(CCOC)CCOC)nc(NCC3CCOC3)c2n1` (stereo not drawn) [Compound 57, N2,N2,N6,N6-tetrakis(2-methoxyethyl)-8-(4-methoxypiperidin-1-yl)-N4-((tetrahydrofuran-3-yl)methyl)pyrimido[5,4-d]pyrimidine-2,4,6-triamine], the concentration for half-maximal inhibition (IC50) lay within 500 to 1000 nM.
Molecule `COCCN(CCOC)c1nc(N2CCS(=O)(=O)CC2)c2nc(N(CCOC)CCOC)nc(NCc3ccccc3)c2n1` [Compound 7] returned a half-maximal inhibitory concentration (IC50) of less than 100 nM.
In the case of `COCCN(CCOC)c1nc(N2CC[C@@H](O)C2)c2nc(N(CCOC)CCOC)nc(N3CCC(OC)CC3)c2n1` [Compound 93, (R)-1-(2,6-bis(bis(2-methoxyethyl)amino)-8-(4-methoxypiperidin-1-yl)pyrimido[5,4-d]pyrimidin-4-yl)pyrrolidin-3-ol] it was 500 to 1000 nM; in that of `COCCNc1nc(N(CCOC)CCOC)nc2c(N3CCC(OC)CC3)nc(N(CCOC)CCOC)nc12` [Compound 128, N2,N2,N4,N6,N6-pentakis(2-methoxyethyl)-8-(4-methoxypiperidin-1-yl)pyrimido[5,4-d]pyrimidine-2,4,6-triamine], 500 to 1000 nM.
In turn, `COCCN(CCOC)c1nc(N2CCN(c3ncn(C)n3)CC2)c2nc(N(CCOC)CCOC)nc(NCc3cccc(S(C)(=O)=O)c3)c2n1` [Compound 226, N2,N2,N6,N6-tetrakis(2-methoxyethyl)-8-(4-(1-methyl-1H-1,2,4-triazol-3-yl)piperazin-1-yl)-N4-(3-(methylsulfonyl)benzyl)pyrimido[5,4-d]pyrimidine-2,4,6-triamine] came in with an IC50 of 100 to 500 nM.
In turn, `COCCN(CCOC)c1nc(N2CCN(c3nc(C)ns3)CC2)c2nc(N(CCOC)CCOC)nc(N3CCC(OC)CC3)c2n1` [Compound 123, N2,N2,N6,N6-tetrakis(2-methoxyethyl)-4-(4-methoxypiperidin-1-yl)-8-(4-(3-methyl-1,2,4-thiadiazol-5-yl)piperazin-1-yl)pyrimido[5,4-d]pyrimidine-2,6-diamine] yielded an IC50 of 100 to 500 nM.
In the case of `COCCN(CCOC)c1nc(N2CCC(OC)CC2)c2nc(N(CCO)CCO)nc(N3CC(=O)N(C)C(C)(C)C3)c2n1` [Compound 311, 4-(2-(bis(2-hydroxyethyl)amino)-6-(bis(2-methoxyethyl)amino)-8-(4-methoxypiperidin-1-yl)pyrimido[5,4-d]pyrimidin-4-yl)-1,6,6-trimethylpiperazin-2-one] it was less than 100 nM.
In turn, `COCCN(CCOC)c1nc(N2CC[C@H](OC)C2)c2nc(N(CCOC)CCOC)nc(N3CCC(OC)CC3)c2n1` [Compound 106, (S)-N2,N2,N6,N6-tetrakis(2-methoxyethyl)-4-(4-methoxypiperidin-1-yl)-8-(3-methoxypyrrolidin-1-yl)pyrimido[5,4-d]pyrimidine-2,6-diamine] had a 50% inhibitory concentration (IC50) of 100 to 500 nM.
For `COCCN(Cc1ccc(OC)c(OC)c1OC)c1nc(N2CCC(OC)CC2)c2nc(N(CCO)CCO)nc(N3CCN(C)C(=O)C3)c2n1` [Compound 304, 4-(2-(bis(2-hydroxyethyl)amino)-6-((2-methoxyethyl)(2,3,4-trimethoxybenzyl)amino)-8-(4-methoxypiperidin-1-yl)pyrimido[5,4-d]pyrimidin-4-yl)-1-methylpiperazin-2-one] the value was less than 100 nM; for `COCCN(CCOC)c1nc(N2CCN(c3ncn(C)n3)CC2)c2nc(N(CCOC)CCOC)nc(N(C)Cc3cccc(Cl)c3)c2n1` [Compound 242, N4-(3-chlorobenzyl)-N2,N2,N6,N6-tetrakis(2-methoxyethyl)-N4-methyl-8-(4-(1-methyl-1H-1,2,4-triazol-3-yl)piperazin-1-yl)pyrimido[5,4-d]pyrimidine-2,4,6-triamine], 500 to 1000 nM; for `COCCN(CCOC)c1nc(N2CC(=O)N(C)C(C)C2)c2nc(N(CCO)CCO)nc(N3CCC(OC)CC3)c2n1` (stereo not drawn) [Compound 310, 4-(6-(bis(2-hydroxyethyl)amino)-2-(bis(2-methoxyethyl)amino)-8-(4-methoxypiperidin-1-yl)pyrimido[5,4-d]pyrimidin-4-yl)-1,6-dimethylpiperazin-2-one], 500 to 1000 nM.
On to `COCCN(CCOC)c1nc(N2CC(=O)N(C)C(C)(C)C2)c2nc(N(CCO)CCO)nc(N3CCC(OC)CC3)c2n1` [Compound 312, 4-(6-(bis(2-hydroxyethyl)amino)-2-(bis(2-methoxyethyl)amino)-8-(4-methoxypiperidin-1-yl)pyrimido[5,4-d]pyrimidin-4-yl)-1,6,6-trimethylpiperazin-2-one], for which the IC50 fell in the range of 100 to 500 nM.
With `CCOC(=O)C1CCN(c2nc(N(CCOC)CCOC)nc3c(N4CCC(C(=O)OCC)CC4)nc(N(CCOC)CCOC)nc23)CC1` [Compound 3, diethyl 1,1′-(2,6-bis(bis(2-methoxyethyl)amino)pyrimido[5,4-d]pyrimidine-4,8-diyl)bis(piperidine-4-carboxylate)], the IC50 was in the range of 100 to 500 nM.
